# Source: patent US9738634B2, “Heterocyclic amide compound and herbicide” (SYNGENTA PARTICIPATIONS AG, priority 2013, dated 2017)
# Tests used:
# Assay type in all cases: in vivo
# barnyard grass [1] = assay: Test Example 1: weedkilling efficacy, preemergent weed treatment in the submerged state; A: barnyard grass; conditions: treatment dosage 252 g/ha
# How it was run: (§1)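 Pre-emergence application onto floodwater (4 cm, alluvial soil) on the day of sowing, dose expressed as g/ha from diluted emulsion formulation. Weeds sown with 2.5-leaf transplanted rice as crop; plants held at 25–30 °C in greenhouse and scored against assessment criteria after 3 weeks.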
# bulrush [2] = assay: Test Example 1: weedkilling efficacy, preemergent weed treatment in the submerged state; B: bulrush; conditions: treatment dosage 252 g/ha
# How it was run: as §1
# oval-leafed pondweed [3] = assay: Test Example 1: weedkilling efficacy, preemergent weed treatment in the submerged state; C: oval-leafed pondweed; conditions: treatment dosage 252 g/ha
# How it was run: as §1
# transplanted rice = assay: Test Example 1: preemergent weed treatment in the submerged state, effect on crop; a: transplanted rice; conditions: treatment dosage 252 g/ha
# How it was run: as §1
# barnyard grass [4] = assay: Test Example 2: weedkilling efficacy, growth period weed treatment in the submerged state; A: barnyard grass; conditions: treatment dosage 252 g/ha
# How it was run: (§2)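 Weeds treated at the 1-2 leaf stage by application of diluted emulsion onto floodwater (4 cm depth, alluvial soil) at specified g/ha. Grown in greenhouse at 25 to 30° C; herbicidal effect rated three weeks after treatment.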
# bulrush [5] = assay: Test Example 2: weedkilling efficacy, growth period weed treatment in the submerged state; B: bulrush; conditions: treatment dosage 252 g/ha
# How it was run: as §2
# oval-leafed pondweed [6] = assay: Test Example 2: weedkilling efficacy, growth period weed treatment in the submerged state; C: oval-leafed pondweed; conditions: treatment dosage 252 g/ha
# How it was run: as §2
# crabgrass [7] = assay: Test Example 3: weedkilling efficacy through soil treatment; D: crabgrass; conditions: treatment dosage 315 g/ha
# How it was run: (§3)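 Crop and weed responses were judged three weeks after a uniform surface spray of the water-diluted emulsion at the given g/ha rate. Seeds sat beneath about 1.5 cm of sterilized diluvial soil, and boxes stood in a greenhouse at 25 to 30° C.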
# green foxtail [8] = assay: Test Example 3: weedkilling efficacy through soil treatment; E: green foxtail; conditions: treatment dosage 315 g/ha
# How it was run: as §3
# wild oat [9] = assay: Test Example 3: weedkilling efficacy through soil treatment; G: wild oat; conditions: treatment dosage 315 g/ha
# How it was run: as §3
# black-grass [10] = assay: Test Example 3: weedkilling efficacy through soil treatment; H: black-grass; conditions: treatment dosage 315 g/ha
# How it was run: as §3
# Italian ryegrass [11] = assay: Test Example 3: weedkilling efficacy through soil treatment; I: Italian ryegrass; conditions: treatment dosage 315 g/ha
# How it was run: as §3
# Indian mallow [12] = assay: Test Example 3: weedkilling efficacy through soil treatment; K: Indian mallow; conditions: treatment dosage 315 g/ha
# How it was run: as §3
# redroot pigweed [13] = assay: Test Example 3: weedkilling efficacy through soil treatment; L: redroot pigweed; conditions: treatment dosage 315 g/ha
# How it was run: as §3
# fig-leafed goosefoot [14] = assay: Test Example 3: weedkilling efficacy through soil treatment; M: fig-leafed goosefoot; conditions: treatment dosage 315 g/ha
# How it was run: as §3
# chickweed [15] = assay: Test Example 3: weedkilling efficacy through soil treatment; N: chickweed; conditions: treatment dosage 315 g/ha
# How it was run: as §3
# catchweed [16] = assay: Test Example 3: weedkilling efficacy through soil treatment; O: catchweed; conditions: treatment dosage 315 g/ha
# How it was run: as §3
# birds-eye speedwell = assay: Test Example 3: weedkilling efficacy through soil treatment; p: birds-eye speedwell; conditions: treatment dosage 315 g/ha
# How it was run: as §3
# directly sown rice [17] = assay: Test Example 3: soil treatment, effect on crop; b: directly sown rice; conditions: treatment dosage 315 g/ha
# How it was run: as §3
# corn [18] = assay: Test Example 3: soil treatment, effect on crop; c: corn; conditions: treatment dosage 315 g/ha
# How it was run: as §3
# soybean [19] = assay: Test Example 3: soil treatment, effect on crop; d: soybean; conditions: treatment dosage 315 g/ha
# How it was run: as §3
# wheat [20] = assay: Test Example 3: soil treatment, effect on crop; e: wheat; conditions: treatment dosage 315 g/ha
# How it was run: as §3
# crabgrass [21] = assay: Test Example 4: weedkilling efficacy by foliar treatment; D: crabgrass; conditions: treatment dosage 315 g/ha
# How it was run: (§4)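 Seeds are spot-sown into sterilized diluvial soil and covered with about 1.5 cm of soil. After 14 days' greenhouse growth at 25 to 30° C, plants are sprayed on stems and leaves with diluted emulsion at the stated g/ha rate, then scored at 3 weeks.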
# green foxtail [22] = assay: Test Example 4: weedkilling efficacy by foliar treatment; E: green foxtail; conditions: treatment dosage 315 g/ha
# How it was run: as §4
# wild oat [23] = assay: Test Example 4: weedkilling efficacy by foliar treatment; G: wild oat; conditions: treatment dosage 315 g/ha
# Protocol: Testing of Weedkilling Efficacy by Foliar Treatment
# Sterilized diluvial soil was introduced into 21 cm long, 13 cm wide, 7 cm deep plastic boxes, and seeds of crabgrass, green foxtail, barnyard grass, wild oat, black-grass, Italian ryegrass, common wind-grass, Indian mallow, redroot pigweed, fig-leafed goosefoot, chickweed, catchweed, birds-eye speedwell, corn, soybean, rice, wheat, beet and rapeseed were each spot-sown, and covered with about 1.5 cm of soil, then the plants were grown in a greenhouse at 25 to 30° C.
# After they had grown for 14 days, emulsions of compounds of the present invention prepared according to compounding example 2 were diluted with water to give the specified dosages, and applied uniformly onto the stem and leaf parts with a small sprayer. 3 weeks after the pesticide treatment the effect on each type of plant was investigated on the basis of the assessment criteria of test example 1.
# A: barnyard grass, B: bulrush, C: oval-leafed pondweed, D: crabgrass, E: green foxtail, F: barnyard grass, G: wild oat, H: black-grass, I: Italian ryegrass, J: common wind-grass, K: Indian mallow, L: redroot pigweed, M: fig-leafed goosefoot, N: chickweed, O: catchweed, p: birds-eye speedwell, a: transplanted rice, b: directly sown rice, c: corn, d: soybean, e: wheat, f: beet, g: rapeseed
# Further, pesticide dosage (g/ha) indicates the concentration regulated such that treatment was with only the stated number of grams (g), when calculated per hectare (ha).
# black-grass [24] = assay: Test Example 4: weedkilling efficacy by foliar treatment; H: black-grass; conditions: treatment dosage 315 g/ha
# How it was run: as §4
# Italian ryegrass [25] = assay: Test Example 4: weedkilling efficacy by foliar treatment; I: Italian ryegrass; conditions: treatment dosage 315 g/ha
# How it was run: as §4
# Indian mallow [26] = assay: Test Example 4: weedkilling efficacy by foliar treatment; K: Indian mallow; conditions: treatment dosage 315 g/ha
# How it was run: as §4
# redroot pigweed [27] = assay: Test Example 4: weedkilling efficacy by foliar treatment; L: redroot pigweed; conditions: treatment dosage 315 g/ha
# How it was run: as §4
# fig-leafed goosefoot [28] = assay: Test Example 4: weedkilling efficacy by foliar treatment; M: fig-leafed goosefoot; conditions: treatment dosage 315 g/ha
# How it was run: as §4
# chickweed [29] = assay: Test Example 4: weedkilling efficacy by foliar treatment; N: chickweed; conditions: treatment dosage 315 g/ha
# How it was run: as §4
# catchweed [30] = assay: Test Example 4: weedkilling efficacy by foliar treatment; O: catchweed; conditions: treatment dosage 315 g/ha
# How it was run: as §4
# directly sown rice [31] = assay: Test Example 4: foliar treatment, effect on crop; b: directly sown rice; conditions: treatment dosage 315 g/ha
# How it was run: as §4
# corn [32] = assay: Test Example 4: foliar treatment, effect on crop; c: corn; conditions: treatment dosage 315 g/ha
# How it was run: as §4
# soybean [33] = assay: Test Example 4: foliar treatment, effect on crop; d: soybean; conditions: treatment dosage 315 g/ha
# How it was run: as §4
# wheat [34] = assay: Test Example 4: foliar treatment, effect on crop; e: wheat; conditions: treatment dosage 315 g/ha
# How it was run: as §4
# beet = assay: Test Example 4: foliar treatment, effect on crop; f: beet; conditions: treatment dosage 315 g/ha
# How it was run: as §4
compound,measurement,setting,value
CC1=C(c2ccccc2)C(=O)N(C(C)(C)C(=O)Nc2cccc(C(F)(F)F)n2)CO1 [B-2-58],A (barnyard grass) weedkilling efficacy grade,barnyard grass [1],"5 (weed kill ratio 90% or more, (practically complete withering))"
same,B (bulrush) weedkilling efficacy grade,bulrush [2],"5 (weed kill ratio 90% or more, (practically complete withering))"
same,C (oval-leafed pondweed) weedkilling efficacy grade,oval-leafed pondweed [3],"5 (weed kill ratio 90% or more, (practically complete withering))"
same,a (transplanted rice) effect on crop grade,transplanted rice,0 (weed kill ratio 5% or less (practically no effect))
same,A (barnyard grass) weedkilling efficacy grade,barnyard grass [4],"3 (weed kill ratio 40% or more, less than 70%)"
same,B (bulrush) weedkilling efficacy grade,bulrush [5],"5 (weed kill ratio 90% or more, (practically complete withering))"
same,C (oval-leafed pondweed) weedkilling efficacy grade,oval-leafed pondweed [6],"4 (weed kill ratio 70% or more, less than 90%)"
same,D (crabgrass) weedkilling efficacy grade,crabgrass [7],"5 (weed kill ratio 90% or more, (practically complete withering))"
same,E (green foxtail) weedkilling efficacy grade,green foxtail [8],"5 (weed kill ratio 90% or more, (practically complete withering))"
same,G (wild oat) weedkilling efficacy grade,wild oat [9],"3 (weed kill ratio 40% or more, less than 70%)"
same,H (black-grass) weedkilling efficacy grade,black-grass [10],"4 (weed kill ratio 70% or more, less than 90%)"
same,I (Italian ryegrass) weedkilling efficacy grade,Italian ryegrass [11],"5 (weed kill ratio 90% or more, (practically complete withering))"
same,K (Indian mallow) weedkilling efficacy grade,Indian mallow [12],"1 (weed kill ratio 5% or more, less than 20%)"
same,L (redroot pigweed) weedkilling efficacy grade,redroot pigweed [13],"3 (weed kill ratio 40% or more, less than 70%)"
same,M (fig-leafed goosefoot) weedkilling efficacy grade,fig-leafed goosefoot [14],"4 (weed kill ratio 70% or more, less than 90%)"
same,N (chickweed) weedkilling efficacy grade,chickweed [15],"4 (weed kill ratio 70% or more, less than 90%)"
same,O (catchweed) weedkilling efficacy grade,catchweed [16],0 (weed kill ratio 5% or less (practically no effect))
same,P (birds-eye speedwell) weedkilling efficacy grade,birds-eye speedwell,"5 (weed kill ratio 90% or more, (practically complete withering))"
same,b (directly sown rice) effect on crop grade,directly sown rice [17],"3 (weed kill ratio 40% or more, less than 70%)"
same,c (corn) effect on crop grade,corn [18],"1 (weed kill ratio 5% or more, less than 20%)"
same,d (soybean) effect on crop grade,soybean [19],0 (weed kill ratio 5% or less (practically no effect))
same,e (wheat) effect on crop grade,wheat [20],0 (weed kill ratio 5% or less (practically no effect))
same,D (crabgrass) weedkilling efficacy grade,crabgrass [21],"5 (weed kill ratio 90% or more, (practically complete withering))"
same,E (green foxtail) weedkilling efficacy grade,green foxtail [22],"5 (weed kill ratio 90% or more, (practically complete withering))"
same,G (wild oat) weedkilling efficacy grade,wild oat [23],"3 (weed kill ratio 40% or more, less than 70%)"
same,H (black-grass) weedkilling efficacy grade,black-grass [24],"5 (weed kill ratio 90% or more, (practically complete withering))"
same,I (Italian ryegrass) weedkilling efficacy grade,Italian ryegrass [25],"5 (weed kill ratio 90% or more, (practically complete withering))"
same,K (Indian mallow) weedkilling efficacy grade,Indian mallow [26],"3 (weed kill ratio 40% or more, less than 70%)"
same,L (redroot pigweed) weedkilling efficacy grade,redroot pigweed [27],"3 (weed kill ratio 40% or more, less than 70%)"
same,M (fig-leafed goosefoot) weedkilling efficacy grade,fig-leafed goosefoot [28],"3 (weed kill ratio 40% or more, less than 70%)"
same,N (chickweed) weedkilling efficacy grade,chickweed [29],"3 (weed kill ratio 40% or more, less than 70%)"
same,O (catchweed) weedkilling efficacy grade,catchweed [30],"1 (weed kill ratio 5% or more, less than 20%)"
same,b (directly sown rice) effect on crop grade,directly sown rice [31],"4 (weed kill ratio 70% or more, less than 90%)"
same,c (corn) effect on crop grade,corn [32],"3 (weed kill ratio 40% or more, less than 70%)"
same,d (soybean) effect on crop grade,soybean [33],"3 (weed kill ratio 40% or more, less than 70%)"
same,e (wheat) effect on crop grade,wheat [34],"1 (weed kill ratio 5% or more, less than 20%)"
same,f (beet) effect on crop grade,beet,"4 (weed kill ratio 70% or more, less than 90%)"
